Publication PMC9460261, “Need for a Standardized Translational Drug Development Platform: Lessons Learned from the Repurposing of Drugs for COVID-19” (Microorganisms, 2022)
Counter-ions that a name gives are not always drawn. Like-named read-outs stand apart in the source and are kept apart here.

Key:
[1] = test system: SARS-CoV-2 in A549-Dual hACE2-TMPRSS2 cells; conditions: for EC50: read-out: A549-Dual hACE2-TMPRSS2 cells Average EC50
[2] = test system: SARS-CoV-2 in Human Airway Epithelia (HAE)
[3] = test system: SARS-CoV-2 in A549-Dual hACE2-TMPRSS2 cells; assay: microbe, parasite or virus in culture; conditions: Severe acute respiratory syndrome coronavirus 2, read-out: A549-Dual hACE2-TMPRSS2 cells Average EC50

Row | Compound | Activity In Vitro; Potency EC50 or IC50 < 10 µM; A549 Cells [1] | Activity Ex Vivo Human Airway Epithelia (HAE) [2] | EC50 [3] [µM] | EC50 [1] [µM] | Toxicity observed (^T), A549 Cells [1] | Concentration showing activity / complete inhibition of viral replication in HAE [2] [µM] | A549-Dual hACE2-TMPRSS2 cells Average EC50 [1]
1 | Nc1c(Br)cc(Br)cc1CN[C@H]1CC[C@H](O)CC1 [Ambroxol, ambroxol] | No (Potency EC50 or IC50 < 10 µM) | No | > 50 | – | – | – | –
2 | bemnifosbuvir | No (Potency EC50 or IC50 < 10 µM) | No | – | > 50 | – | – | –
3 | O=c1nc(NO)ccn1[C@@H]1O[C@H](CO)[C@@H](O)[C@H]1O [EIDD-1931] | – | – | – | 0.47 | – | – | –
4 | COC(=O)N[C@H](C(=O)N[C@@H](Cc1ccccc1)[C@@H](O)CN(Cc1ccc(-c2ccccn2)cc1)NC(=O)[C@@H](NC(=O)OC)C(C)(C)C)C(C)(C)C [Atazanavir, atazanavir] | – | – | 24 | – | – | – | –
5 | CC1(C)C(=O)N(c2ccc(C#N)c(C(F)(F)F)c2F)C(=S)N1c1ccc(CCCc2ncco2)nc1 [Proxalutamide, proxalutamide] | No (Potency EC50 or IC50 < 10 µM) | No | – | > 50 | – | – | –
6 | COc1cc2c(c(OC)c1OC)-c1ccc(OC)c(=O)cc1[C@@H](NC(C)=O)CC2 [Colchicine, colchicine] | Yes ^T (key: Yes: Potency EC50 or IC50 < 10 µM; No: Potency EC50 or IC50 < 10 µM) | No | – | – | – | – | –
7 | O=C(Nc1ncc([N+](=O)[O-])s1)c1ccccc1O [Tizoxanide, tizoxanide] | – | – | > 100 | – | – | – | –
8 | Cc1c(O)cccc1C(=O)N[C@@H](CSc1ccccc1)[C@H](O)CN1C[C@H]2CCCC[C@H]2C[C@H]1C(=O)NC(C)(C)C [Nelfinavir, nelfinavir] | Yes (Potency EC50 or IC50 < 10 µM) | Yes | 3.2 | – | Yes ^T | 10 | –
9 | CC(C)(C)[C@H](NC(=O)C(F)(F)F)C(=O)N1C[C@H]2[C@@H]([C@H]1C(=O)N[C@H](C#N)C[C@@H]1CCNC1=O)C2(C)C [Nirmatrelvir, nirmatrelvir] | Yes (Potency EC50 or IC50 < 10 µM) | Yes | – | – | – | 1 | –
10 | NC(=O)c1nc(F)c[nH]c1=O [Favipiravir, favipiravir] | No (Potency EC50 or IC50 < 10 µM) | No | > 100 | – | – | – | –
11 | CN(C)C(=O)COC(=O)Cc1ccc(OC(=O)c2ccc(NC(=N)N)cc2)cc1 [Camostat mesylate, camostat mesylate] | No (Potency EC50 or IC50 < 10 µM) | Yes | > 50 | – | – | 10 | –
12 | OC(c1cc(C(F)(F)F)nc2c(C(F)(F)F)cccc12)C1CCCCN1 (stereo not drawn) [Mefloquine, mefloquine] | No (Potency EC50 or IC50 < 10 µM) | No | > 50 | – | – | – | –
13 | ivermectin | Yes (Potency EC50 or IC50 < 10 µM) | Yes | – | – | – | – | +NA
14 | CCN(CC)Cc1cc(Nc2ccnc3cc(Cl)ccc23)ccc1O [Amodiaquine, amodiaquine] | No (Potency EC50 or IC50 < 10 µM) | No | > 50 | – | – | – | –
15 | CC(C)/N=c1\cc2n(-c3ccc(Cl)cc3)c3ccccc3nc-2cc1Nc1ccc(Cl)cc1 [Clofazimine, clofazimine] | Yes (Potency EC50 or IC50 < 10 µM) | No | 2.4 | – | Yes ^T | – | –
16 | COc1ccc2cc1Oc1ccc(cc1)C[C@H]1c3c(cc4c(c3Oc3cc5c(cc3OC)CCN(C)[C@@H]5C2)OCO4)CCN1C [Cepharanthine, cepharanthine] | No (Potency EC50 or IC50 < 10 µM) | No | > 50 | – | – | – | –
17 | CC(=O)Oc1ccccc1C(=O)Nc1ncc([N+](=O)[O-])s1 [Nitazoxanide, nitazoxanide] | No (Potency EC50 or IC50 < 10 µM) | – | > 100 | – | – | 5 | –
18 | CC(=O)CCCCn1c(=O)c2c(ncn2C)n(C)c1=O [Pentoxyfilline, pentoxyfilline] | No (Potency EC50 or IC50 < 10 µM) | No | > 50 | – | – | – | –
19 | CC(C)C(=O)OC[C@H]1O[C@@H](n2ccc(NO)nc2=O)[C@H](O)[C@@H]1O [Molnupiravir, molnupiravir] | Yes (Potency EC50 or IC50 < 10 µM) | Yes | 3.6 | – | – | 10 | –
20 | CNCCC(Oc1ccc(C(F)(F)F)cc1)c1ccccc1 (stereo not drawn) [Fluoxetine, fluoxetine] | No (key: Yes: Potency EC50 or IC50 < 10 µM; No: Potency EC50 or IC50 < 10 µM) | No | – | – | – | – | –
21 | CC(C)OC(=O)[C@H](C)N[P@](=O)(OC[C@H]1O[C@@H](n2ccc(=O)[nH]c2=O)[C@](C)(F)[C@@H]1O)Oc1ccccc1 [Sofosbuvir, sofosbuvir] | No (Potency EC50 or IC50 < 10 µM) | No | > 50 | – | – | – | –
22 | COC(=O)N[C@H](C(=O)N1CCC[C@H]1c1nc(-c2ccc(-c3ccc(-c4c[nH]c([C@@H]5CCCN5C(=O)[C@@H](NC(=O)OC)C(C)C)n4)cc3)cc2)c[nH]1)C(C)C [Daclatasvir, daclatasvir] | No (Potency EC50 or IC50 < 10 µM) | No | > 50 | – | – | – | –
23 | COCCCC/C(=N\OCCN)c1ccc(C(F)(F)F)cc1 [Fluvoxamine maleate, fluvoxamine maleate] | No (key: Yes: Potency EC50 or IC50 < 10 µM; No: Potency EC50 or IC50 < 10 µM) | No | 39.9 | – | – | – | –
24 | CCCN(CCC)S(=O)(=O)c1ccc(C(=O)O)cc1 [Probenecid, probenecid] | No (Potency EC50 or IC50 < 10 µM) | No | > 50 | – | – | – | –
